{"source": "ChEMBL document CHEMBL5338779", "about": "“Discovery, Synthesis, and In Vitro Characterization of 2,3 Derivatives of 4,5,6,7-Tetrahydro-Benzothiophene as Potent Modulators of Retinoic Acid Receptor-Related Orphan Receptor γt” (J Med Chem, 2023)", "note": "pIC50: −log10 of the molar value. Calls of active or inactive are those of the source. The rule behind the calls is not given here."}
{"system": "PBMC", "assay": "Cytotoxicity against human PBMC cells assessed as cell death by flow cytometry method", "assay_type": "toxicity, cell-based", "conditions": "not given"}
{"smiles": "CSc1ncc(Cl)c(C(=O)Nc2sc3c(c2C(=O)NCc2ccccc2)CCCC3)n1", "Activity": "Non-Toxic"}
{"target": "T1, Nuclear receptor ROR-gamma (Homo sapiens, UniProt P51449)", "T1 sequence (P51449 whole entry)": "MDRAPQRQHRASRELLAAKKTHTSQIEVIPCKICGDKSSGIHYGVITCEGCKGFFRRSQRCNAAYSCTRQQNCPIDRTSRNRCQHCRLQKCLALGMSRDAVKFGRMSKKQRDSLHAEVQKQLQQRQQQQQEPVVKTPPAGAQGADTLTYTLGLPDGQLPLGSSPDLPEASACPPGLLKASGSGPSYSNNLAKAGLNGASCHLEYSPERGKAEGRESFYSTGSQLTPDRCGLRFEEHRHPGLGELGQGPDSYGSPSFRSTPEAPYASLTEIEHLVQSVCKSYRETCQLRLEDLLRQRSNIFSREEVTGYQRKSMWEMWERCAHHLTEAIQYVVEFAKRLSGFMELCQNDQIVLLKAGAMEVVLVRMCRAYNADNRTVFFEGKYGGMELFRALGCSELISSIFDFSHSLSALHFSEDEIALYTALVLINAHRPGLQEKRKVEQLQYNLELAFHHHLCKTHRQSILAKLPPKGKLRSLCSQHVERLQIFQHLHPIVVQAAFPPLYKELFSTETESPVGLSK", "assay": "biochemical", "assay_type": "cell-based, Insect cell", "conditions": "not given"}
{"smiles": "CSc1ncc(Cl)c(C(=O)Nc2sc3c(c2C(=O)NC2CCS(=O)(=O)C2)CCC(C)C3)n1", "note": "(stereo not given)", "pIC50": 8.35}
{"smiles": "CN1CCN(CC(=O)Nc2sc3c(c2C(=O)NCc2ccccc2)CCCC3)CC1", "pIC50": 8.93}
{"smiles": "CC1CCCN1C(=O)c1c(NC(=O)c2cccnc2)sc2c1CCCC2", "note": "(stereo not given)", "pIC50": 8.45}
{"smiles": "O=C(Nc1sc2c(c1C(=O)c1ccccc1)CCCC2)c1cnccn1", "pIC50": 7.71}
{"smiles": "CSc1ncc(Cl)c(C(=O)Nc2sc3c(c2C(=O)NCc2ccccc2)CCCC3)n1", "pIC50": 9.40}
{"system": "not listed separately", "assay": "Apparent permeability across apical to basolateral side in human Caco-2 cells measured after 90 mins by LC-MS/MS analysis", "conditions": "caco-2, 1.5 h"}
{"smiles": "CSc1ncc(Cl)c(C(=O)Nc2sc3c(c2C(=O)NC2CCS(=O)(=O)C2)CCC(C)C3)n1", "note": "(stereo not given)", "Papp": "1.4 10^-6 cm/s"}
{"smiles": "CN1CCN(CC(=O)Nc2sc3c(c2C(=O)NCc2ccccc2)CCCC3)CC1", "Papp": "4.6 10^-6 cm/s"}
{"smiles": "CC1CCCN1C(=O)c1c(NC(=O)c2cccnc2)sc2c1CCCC2", "note": "(stereo not given)", "Papp": "34.2 10^-6 cm/s"}
{"smiles": "CSc1ncc(Cl)c(C(=O)Nc2sc3c(c2C(=O)NCc2ccccc2)CCCC3)n1", "Papp": "4.2 10^-6 cm/s"}
{"target": "T2, Nuclear receptor ROR-gamma (Homo sapiens) (UniProt P51449)", "T2 sequence (whole entry)": "T1 sequence (P51449 whole entry)", "assay": "not given", "conditions": "HEK293T, filed as inverse agonist, dose 0.004-1000 nM", "units": {"deltaG": "kcal/mol"}}
{"smiles": "CSc1ncc(Cl)c(C(=O)Nc2sc3c(c2C(=O)NC2CCS(=O)(=O)C2)CCC(C)C3)n1", "note": "(stereo not given)", "deltaG": -9.75}
{"smiles": "CN1CCN(CC(=O)Nc2sc3c(c2C(=O)NCc2ccccc2)CCCC3)CC1", "deltaG": -12.5}
{"smiles": "CC1CCCN1C(=O)c1c(NC(=O)c2cccnc2)sc2c1CCCC2", "note": "(stereo not given)", "deltaG": -7.57}
{"smiles": "O=C(Nc1sc2c(c1C(=O)c1ccccc1)CCCC2)c1cnccn1", "deltaG": -10.1}
{"smiles": "CSc1ncc(Cl)c(C(=O)Nc2sc3c(c2C(=O)NCc2ccccc2)CCCC3)n1", "deltaG": -11.6}
{"system": "PBMC", "assay": "Cytotoxicity against human PBMC cells assessed as reduction in cell viability by flow cytometry method", "assay_type": "toxicity, cell-based", "conditions": "not given"}
{"smiles": "CSc1ncc(Cl)c(C(=O)Nc2sc3c(c2C(=O)NCc2ccccc2)CCCC3)n1", "Activity": "Non-Toxic"}
{"system": "not listed separately", "assay": "physchem", "conditions": "citrate buffer, pH 5", "units": {"solubility kinetic at 2 h": "µM"}}
{"smiles": "CSc1ncc(Cl)c(C(=O)Nc2sc3c(c2C(=O)NC2CCS(=O)(=O)C2)CCC(C)C3)n1", "note": "(stereo not given)", "solubility kinetic at 2 h": 9.72}
{"smiles": "CN1CCN(CC(=O)Nc2sc3c(c2C(=O)NCc2ccccc2)CCCC3)CC1", "solubility kinetic at 2 h": 357}
{"smiles": "CC1CCCN1C(=O)c1c(NC(=O)c2cccnc2)sc2c1CCCC2", "note": "(stereo not given)", "solubility kinetic at 2 h": 392}
{"system": "not listed separately", "assay": "Lipophilicity, logD of the compound at pH 7.4", "conditions": "buffer"}
{"smiles": "CSc1ncc(Cl)c(C(=O)Nc2sc3c(c2C(=O)NC2CCS(=O)(=O)C2)CCC(C)C3)n1", "note": "(stereo not given)", "logD": 3.28}
{"smiles": "CN1CCN(CC(=O)Nc2sc3c(c2C(=O)NCc2ccccc2)CCCC3)CC1", "logD": 3.06}
{"smiles": "CC1CCCN1C(=O)c1c(NC(=O)c2cccnc2)sc2c1CCCC2", "note": "(stereo not given)", "logD": 3.68}
{"smiles": "O=C(Nc1sc2c(c1C(=O)c1ccccc1)CCCC2)c1cnccn1", "logD": 4.15}
{"smiles": "CSc1ncc(Cl)c(C(=O)Nc2sc3c(c2C(=O)NCc2ccccc2)CCCC3)n1", "logD": 5.45}
{"system": "not listed separately", "assay": "Substrate activity at P-gp in MDCKII-MDR1 cells assessed as efflux ratio of apparent permeability from apical to basolateral side over basolateral to apical side at 10 uM incubated for 90 mins by LC-MS/MS analysis", "conditions": "dog, mdckii-mdr1, 1.5 h"}
{"smiles": "CSc1ncc(Cl)c(C(=O)Nc2sc3c(c2C(=O)NC2CCS(=O)(=O)C2)CCC(C)C3)n1", "note": "(stereo not given)", "Ratio": 8.7}
{"smiles": "CN1CCN(CC(=O)Nc2sc3c(c2C(=O)NCc2ccccc2)CCCC3)CC1", "Ratio": 1.1}
{"smiles": "CC1CCCN1C(=O)c1c(NC(=O)c2cccnc2)sc2c1CCCC2", "note": "(stereo not given)", "Ratio": 0.8}
{"smiles": "CSc1ncc(Cl)c(C(=O)Nc2sc3c(c2C(=O)NCc2ccccc2)CCCC3)n1", "Ratio": 0.3}
{"system": "PBMC", "assay": "Cytotoxicity against human PBMC cells assessed as increase in cell proliferation by flow cytometry method", "assay_type": "toxicity, cell-based", "conditions": "not given"}
{"smiles": "CSc1ncc(Cl)c(C(=O)Nc2sc3c(c2C(=O)NCc2ccccc2)CCCC3)n1", "Activity": "Non-Toxic"}
{"target": "T2, Nuclear receptor ROR-gamma (Homo sapiens)", "assay": "Inverse agonist activity at RORgammaT in human PBMC cells assessed as reduction in CD4-positive IL21-positive cells in Th17 polarization at 10 nM incubated for 48 hrs relative to control", "assay_type": "cell-based", "set-up": "scale not given: the % may be the effect or the level left", "conditions": "not given", "units": {"Activity": "%"}}
{"smiles": "CSc1ncc(Cl)c(C(=O)Nc2sc3c(c2C(=O)NCc2ccccc2)CCCC3)n1", "Activity": 20}
{"system": "not listed separately", "assay": "physchem", "conditions": "PBS, pH 7.4", "units": {"solubility kinetic at 2 h": "µM"}}
{"smiles": "CSc1ncc(Cl)c(C(=O)Nc2sc3c(c2C(=O)NC2CCS(=O)(=O)C2)CCC(C)C3)n1", "note": "(stereo not given)", "solubility kinetic at 2 h": 40.2}
{"smiles": "CN1CCN(CC(=O)Nc2sc3c(c2C(=O)NCc2ccccc2)CCCC3)CC1", "solubility kinetic at 2 h": 99.3}
{"smiles": "CC1CCCN1C(=O)c1c(NC(=O)c2cccnc2)sc2c1CCCC2", "note": "(stereo not given)", "solubility kinetic at 2 h": 31.3}
{"smiles": "O=C(Nc1sc2c(c1C(=O)c1ccccc1)CCCC2)c1cnccn1", "solubility kinetic at 2 h": 18.3}
{"smiles": "CSc1ncc(Cl)c(C(=O)Nc2sc3c(c2C(=O)NCc2ccccc2)CCCC3)n1", "solubility kinetic at 2 h": "≤ 1"}
{"target": "T2, Nuclear receptor ROR-gamma (Homo sapiens)", "assay": "Inverse agonist activity at RORgammaT in human PBMC cells assessed as reduction in CD4-positive IL17A-positive cells in Th17 polarization at 10 nM incubated for 48 hrs relative to control", "assay_type": "cell-based", "set-up": "scale not given: the % may be the effect or the level left", "conditions": "not given", "units": {"Activity": "%"}}
{"smiles": "CSc1ncc(Cl)c(C(=O)Nc2sc3c(c2C(=O)NCc2ccccc2)CCCC3)n1", "Activity": 20}
{"target": "T2, Nuclear receptor ROR-gamma (Homo sapiens)", "assay": "Inverse agonist activity at RORgammaT in human PBMC cells assessed as reduction in IL22-positive T cells in Th17 polarization at 10 nM incubated for 48 hrs", "assay_type": "cell-based", "conditions": "not given"}
{"smiles": "CSc1ncc(Cl)c(C(=O)Nc2sc3c(c2C(=O)NCc2ccccc2)CCCC3)n1", "Activity": "inactive"}
{"system": "PBMC", "assay": "Induction of apoptosis in human PBMC cells by flow cytometry method", "assay_type": "toxicity, cell-based", "conditions": "not given"}
{"smiles": "CSc1ncc(Cl)c(C(=O)Nc2sc3c(c2C(=O)NCc2ccccc2)CCCC3)n1", "Activity": "Non-Toxic"}
{"system": "not listed separately", "assay": "physchem", "conditions": "fasted state simulated gastric fluid, pH 1.6", "units": {"solubility kinetic at 2 h": "µM"}}
{"smiles": "CSc1ncc(Cl)c(C(=O)Nc2sc3c(c2C(=O)NC2CCS(=O)(=O)C2)CCC(C)C3)n1", "note": "(stereo not given)", "solubility kinetic at 2 h": 1.7}
{"smiles": "CN1CCN(CC(=O)Nc2sc3c(c2C(=O)NCc2ccccc2)CCCC3)CC1", "solubility kinetic at 2 h": "≥ 400"}
{"smiles": "CC1CCCN1C(=O)c1c(NC(=O)c2cccnc2)sc2c1CCCC2", "note": "(stereo not given)", "solubility kinetic at 2 h": "≥ 400"}
{"system": "not listed separately", "assay": "Apparent permeability across apical to basolateral side in MDCKII-MDR1 cells at 10 uM incubated for 90 mins by LC-MS/MS analysis", "conditions": "dog, mdck-mdr1, 1.5 h"}
{"smiles": "CSc1ncc(Cl)c(C(=O)Nc2sc3c(c2C(=O)NC2CCS(=O)(=O)C2)CCC(C)C3)n1", "note": "(stereo not given)", "Papp": "2.5 10^-6 cm/s"}
{"smiles": "CN1CCN(CC(=O)Nc2sc3c(c2C(=O)NCc2ccccc2)CCCC3)CC1", "Papp": "6.8 10^-6 cm/s"}
{"smiles": "CC1CCCN1C(=O)c1c(NC(=O)c2cccnc2)sc2c1CCCC2", "note": "(stereo not given)", "Papp": "29 10^-6 cm/s"}
{"smiles": "CSc1ncc(Cl)c(C(=O)Nc2sc3c(c2C(=O)NCc2ccccc2)CCCC3)n1", "Papp": "8 10^-6 cm/s"}
{"system": "not listed separately", "assay": "Efflux ratio of apparent permeability from apical to basolateral side over basolateral to apical side in MDCKII-MDR1 cells at 10 uM incubated for 90 mins in presence of cyclosporine A by LC-MS/MS analysis", "conditions": "dog, mdck-mdr1, 1.5 h"}
{"smiles": "CSc1ncc(Cl)c(C(=O)Nc2sc3c(c2C(=O)NC2CCS(=O)(=O)C2)CCC(C)C3)n1", "note": "(stereo not given)", "Ratio": 1.1}
{"smiles": "CN1CCN(CC(=O)Nc2sc3c(c2C(=O)NCc2ccccc2)CCCC3)CC1", "Ratio": 1.2}
{"smiles": "CC1CCCN1C(=O)c1c(NC(=O)c2cccnc2)sc2c1CCCC2", "note": "(stereo not given)", "Ratio": 0.8}
{"smiles": "CSc1ncc(Cl)c(C(=O)Nc2sc3c(c2C(=O)NCc2ccccc2)CCCC3)n1", "Ratio": 0.3}
{"target": "T2, Nuclear receptor ROR-gamma (Homo sapiens)", "assay": "Inverse agonist activity at RORgammaT in human PBMC cells assessed as reduction in IFNgamma-positive T cells in Th17 polarization at 10 nM incubated for 48 hrs", "assay_type": "cell-based", "conditions": "not given"}
{"smiles": "CSc1ncc(Cl)c(C(=O)Nc2sc3c(c2C(=O)NCc2ccccc2)CCCC3)n1", "Activity": "inactive"}
